These results are taken from patent publication US8895509B2, “MIR-200 family induces mesenchymal-to-epithelial transition (MET) in ovarian cancer cells” (Georgia Tech Research Corporation, priority 2010, dated 2014).

“Also recorded” adds a separate entry of the source.

In this data set the test system is HEY cells. Nature of the data set: anchorage-independent growth in soft agar. It counts as cell-based, human. Conditions: 8 days in soft agar, vs negative control. As for the experimental part: Anchorage independent growth was examined using Cell Biolab's (San Diego, Calif.) soft agar kit according to the manufacturer's protocol. Briefly, 5,000 cells were grown in a 0.3% low melting temperature agar matrix. After 8 days of incubation, the agar matrix was solubilized, cells stained and absorbance recorded at 520 nm. The optical density (OD) was measured in a 96-well plate reader using a 485/520 nm filter set.
Anchorage-independent growth is another characteristic of mesenchymal cells and is considered a hallmark of cellular transformation [Takeyama et al., Cancer Lett 2010; 96:216-24]. We tested anchorage-independent growth of HEY cells transfected with miR-429 relative to controls.

With “miR-429: miR-200 family member; mature miRNA UAAUACUGUCUGGUAAAACCGU (SEQ ID NO: 6); miRNA oligonucleotide (Ambion) transfected at 30 nM (listed as RNA, chemistry not given here; listed as Homo sapiens) [miR-200 family member; miRNA oligonucleotide (Ambion) transfected at 30 nM]”, the anchorage-independent growth result was “significant suppression; also recorded: significantly reduced”.
